Experimental data: the NIST ThermoML archive (doi:10.1007/s10765-007-0182-2)
± gives the expanded uncertainty stated by the source.

Settings: 101.33 kPa, Liquid, hot wire

## [Pb] [lead]
620.3 K
  thermal conductivity: 16.2 ± 1 W/m/K
678.1 K
  thermal conductivity: 17 ± 1.1 W/m/K
729.5 K
  thermal conductivity: 17.6 ± 1.1 W/m/K
